Columns and labels:
Type in all cases: cell-based, mouse
Treg cells = assay: In vitro Treg suppression assay; conditions: sgRNA transduced Treg cells plus MIGR-Foxp3
Source text: Treg cells were transduced by retrovirus expressing sgRNA targeting gene of interest and cultured in X-VIVO® complete media supplemented with IL-2 (500 U/ml). Four days after transduction, transduced cells were […] a fluorescence-activated cell sorter (FACS). CD45.1+ naive CD4 T cells (CD4^+CD25^−CD44^loCD62^hi) were labeled with CellTrace™ Violet (Thermo Fisher Scientific #C34571) in different ratio in the presence of irradiated T cell depleted spleen cells as antigen-presenting cells (APC). Three days later, Treg suppression function was measured by the percentage of non-dividing cells within the CD45.1^+ effector T cell population. For dBRD9 treatment experiment, dBRD9 was first dissolved in DMSO (10 mM stock) and added into Treg:Teff:APC mixture at 2.5 μM. For Foxp3 overexpression rescue experiment, Treg cells were first transduced with sgNT or sgBrd9 at 24 hour post-activation, and then transduced with MIGR empty vector or MIGR-Foxp3 at 48 hour post-activation. Double transduced Treg cells were FACS sorted on day 4 based on NGFR+ and GFP+ markers and then mixed with CellTrace™ labeled effector T cells in the presence of APC. Treg suppression readout was measured after three days of co-culture.

H3K27ac = H3K27ac ChIP-seq in Treg cells; conditions: sgRNA transduced Treg cells
Description: Treg cells were collected and cross-linked first in 3 mM disuccinimidyl glutarate (DSG) in 1×PBS for thirty minutes then in 1% formaldehyde for another ten minutes, both at RT, for chromatin binding protein ChIP or in 1% formaldehyde only for histone modification ChIP. After quenching the excess cross-linker with a final concentration of 125 mM glycine, the cells were washed in 1× PBS, pelleted, flash-frozen in liquid nitrogen, and stored at −80° C. Cell pellets were thawed on ice and incubated in lysis solution (50 mM HEPES-KOH pH 8, 140 mM NaCl, 1 mM EDTA, 10% glycerol, 0.5% NP40, 0.25% Triton X-100) for ten minutes. The isolated nuclei were washed with wash solution (10 mM Tris-HCl pH 8, 1 mM EDTA, 0.5 mM EGTA, 200 mM NaCl) and shearing buffer (0.1% SDS, 1 mM EDTA, 10 mM Tris-HCl pH 8) then sheared in a Covaris® E229 sonicator for ten minutes to generate DNA fragments between ˜200-1000 base pairs (bp). After clarification of insoluble material by centrifugation, the chromatin was immunoprecipitated overnight at 4° C. with antibodies against Foxp3, Smarca4, Brd9, Phf10 or H3K27ac. […]
Single-end 50 bp or paired-end 42 bp reads were aligned to mouse genome mm10 using STAR alignment tool (V2.5) (Dobin et al., Bioinformatics 29:15-21, 2013). […]

[1] = tested on: Brd9-dependent Foxp3 binding sites; assay: ATAC-seq chromatin accessibility in Treg cells; conditions: sgBrd9 vs sgNT Treg cells; 61/1699 sites
Description: ATAC-seq was performed according to previously published protocol (Corces et al., Nat Methods 14:959-962, 2017). Briefly, Tregs transduced with either sgNT or sgBrd9 were subjected to Ficoll™ gradient purification to remove dead cells and ensure capture of cells that were 99% viable. 50,000 Treg cells were collected in duplicates per genotype and washed first with cold 1×PBS then with Resuspension buffer (RSB; 10 mM Tris-HCl pH 7.4, 10 mM NaCl, 3 mM MgCl2). Cells were lysed in 50 μL of RSB supplemented with 0.1% NP40, 0.01% Digitonin and 0.1% Tween 20 for 3 minutes on ice then diluted with 1 mL of RSB with 0.1% Tween 20. […]
ATAC-seq data analysis used the following tools and versions: cutadapt (v2.4), samtools (v1.9), Picard (v1.7.1), BWA (v0.7.12), macs2 (v2.1.2), and HOMER (v4.11). Paired end 42 bp reads were trimmed using cutadapt to remove Nextera™ adapter sequences then aligned to the reference mouse genome mm10 using BWA. The following were filtered out using Picard and samtools: duplicate reads, mitochondrial reads, low quality reads (Q<20), and improperly paired or unpaired reads. Quality was assessed by calculating Fraction of Reads In Peaks ([…]) which were >40% for all samples. TSS enrichment was determined using mm10 Refseq TSSs. […]

sgBrd9: sgRNA targeting Brd9, ATTAACCGGTTTCTCCCGGG (SEQ ID NO: 12) (expressed or natural sequence)
Treg suppressor activity with ectopic expression of Foxp3 (Treg cells): partially restored Treg suppressor activity to a level comparable to sgNT controls
H3K27ac at Brd9-dependent Foxp3 sites (H3K27ac): reduction in H3K27ac
Brd9-dependent Foxp3 binding sites with significant reduction in chromatin accessibility [1]: 3.5%

— patent US20240150755A1, “MODULATING REGULATORY T CELL FUNCTION IN AUTOIMMUNE DISEASE AND CANCER” (Salk Institute for Biological Studies, priority 2021, published 2024)
